Our source for the target mRNA inhibition values is the OligoGym collection.

Values joined by “and” are separate entries in the source; they are usually repeats but may differ in a detail not shown here. Equal values may be shown once. After the bases stand the sugars from the 5' end (letter, count) and the backbone: PS all phosphorothioate, else s phosphorothioate and o phosphodiester by linkage. Methylation of C is not given here. e = 2'-O-(2-methoxyethyl) (MOE); d = 2'-deoxy (DNA)

In this series the target is DGAT2. The settings on record: ASO.

On to “GGAAAACTTAGGCATGCTTC (sugars e5 d10 e5, PS)”, for which the target mRNA inhibition is 64% and 72% (HepG2, 2.5 µM); 90% and 87% (HepG2, 10 µM).
Regarding “GCAGCCTGGACAAGTCCTGC (sugars e5 d10 e5, PS)”, the target mRNA inhibition (HepG2, 0.12 µM) came to 70%.
For the setting “HepG2, 0.12 µM”, “TCTTGTGCTTGTCGAAGAGC (sugars e5 d10 e5, PS)” had a target mRNA inhibition of 62%.
In the case of “CAAACAGATTAAAGTTGCTC (sugars e5 d10 e5, PS)”, the target mRNA inhibition was 78% and 72% (HepG2, 2.5 µM); 90% and 91% (HepG2, 10 µM).
Turning to “TGATAGCATTGCCACTCCCA (sugars e2 d13 e5, PS)”, the target mRNA inhibition (HepG2, 0.12 µM) stood at 69%.
In the case of “GATTCAAATCTGTGTGACCT (sugars e5 d10 e5, PS)”, the target mRNA inhibition runs as follows: (HepG2, 2.5 µM) 64% and 83%; (HepG2, 10 µM) 89% and 92%.
On to “GTCCTAGTGCCCCAGGG (sugars e3 d10 e4, PS)”, for which the target mRNA inhibition runs as follows: (HepG2, 2.5 µM) 76% and 86%; (HepG2, 10 µM) 93% and 95%.
Turning to “ATCACAGAGCTTGGTTCATC (sugars e5 d10 e5, PS)”, the target mRNA inhibition is, setting by setting: (HepG2, 2.5 µM) 61% and 44%; (HepG2, 10 µM) 93% and 85%.
Where the note is “HepG2, 0.12 µM”, “GACCCACTGGAGCACTGAGA (sugars e3 d14 e3, PS)” gave a target mRNA inhibition of 56%.
As to “AAAACAGGGTACAACTCTCT (sugars e5 d10 e5, PS)”, the target mRNA inhibition (HepG2, 2.5 µM) was 73% and 59%; the target mRNA inhibition (HepG2, 10 µM) is 91% and 87%.
Take “ACAGTGGTGATGGGCTTGGA (sugars e5 d10 e5, PS)”: for the setting “HepG2, 0.12 µM”, the target mRNA inhibition was found to be 52%.
The same measure, in the same setting: the figure for “GACCCACTGGAGCACTGAGA (sugars e5 d10 e5, PS)” is 69%; for “TTATAATTTCTTTTAAATAA (sugars e5 d10 e5, PS)” it is 0%; for “AGGTAAGGCCGTATGCCTGG (sugars e3 d14 e3, PS)” it is 67%.
The same measure, in the same setting: the figure for “GCAGGTTGTGTGTCTTCACC (sugars e3 d14 e3, PS)” is 69%; for “CAGGCATGGAGCTCAGAGAC (sugars e5 d10 e5, PS)” it is 57%.
The same measure, in the same setting: in the case of “CCTCCAGACATCAGGTACTC (sugars e5 d10 e5, PS)” it was 29%; in that of “TAATTTCTTTTAAATAACCC (sugars e5 d10 e5, PS)”, 0%.
As to “ATCACTTGCTTGAGGTCAGG (sugars e5 d10 e5, PS)”, the target mRNA inhibition is, setting by setting: (HepG2, 2.5 µM) 70%; (HepG2, 10 µM) 90%.
For the sequence “ATCCAGAGACTGAATTCTAG (sugars e5 d10 e5, PS)”, the target mRNA inhibition (HepG2, 2.5 µM) came out at 61% and the target mRNA inhibition (HepG2, 10 µM) was determined as 88%.
As to “TGGGAACTATCACACCACCT (sugars e5 d10 e5, PS)”, the target mRNA inhibition was 53% and 65% (HepG2, 2.5 µM); 90% and 94% (HepG2, 10 µM).
Sequence “GTCCTGCAGTTTCAGGACTA (sugars e5 d10 e5, PS)” yielded a target mRNA inhibition (HepG2, 0.12 µM) of 54%.
Turning to “TCCGGACTGAATGTCACCTC (sugars e5 d10 e5, PS)”, the target mRNA inhibition (HepG2, 2.5 µM) turned out to be 75%; the target mRNA inhibition (HepG2, 10 µM) was 85% and 90%.
“CTTATCCTTGAGGGTCTCAT (sugars e5 d10 e5, PS)” registered a target mRNA inhibition (HepG2, 2.5 µM) of 56% and a target mRNA inhibition (HepG2, 10 µM) of 77%.
The matching figures for “GACTTGCCCAGCAACCCATC (sugars e5 d10 e5, PS)”: 77% and 54%.
In turn, “CACCAGGGCCTCCATGTACA (sugars e2 d13 e5, PS)” had a target mRNA inhibition (HepG2, 0.12 µM) of 69%.
Where the note is “HepG2, 0.12 µM”, “GTGCTCTCCAACTCCTCCCC (sugars e5 d10 e5, PS)” gave a target mRNA inhibition of 34%.
In the case of “CCGGACTGAATGTCACC (sugars e3 d10 e4, PS)”, the target mRNA inhibition (HepG2, 2.5 µM) was 79% and 82%.
Consider “CGTTGGTCTTTTTGGCTGCC (sugars e5 d10 e5, PS)”, for which the target mRNA inhibition runs as follows: (HepG2, 2.5 µM) 88%; (HepG2, 10 µM) 81%.
The corresponding values for “TTTCTTATCTTCAATCCTCA (sugars e5 d10 e5, PS)” are 56% and 90%.
With “TGCCACAGGGCCCTTTCCAG (sugars e5 d10 e5, PS)”, the target mRNA inhibition runs as follows: (HepG2, 2.5 µM) 11%; (HepG2, 10 µM) 67%.
The sequence “CCAGCCCCCAGGTGTCGGAG (sugars e5 d10 e5, PS)” displayed a target mRNA inhibition (HepG2, 0.12 µM) of 50%.
Regarding “GTGGTTGCAATGTTGCC (sugars e3 d10 e4, PS)”, the target mRNA inhibition (HepG2, 2.5 µM) was 67% and 80%; the target mRNA inhibition (HepG2, 10 µM) is 88% and 94%.
Sequence “GCATGGAGCTCAGAGACTCA (sugars e5 d10 e5, PS)” came in with a target mRNA inhibition (HepG2, 0.12 µM) of 69%.
“CACCATAATCTGCACAGGTT (sugars e5 d10 e5, PS)”: the target mRNA inhibition is 86% and 94% (HepG2, 2.5 µM); 88% and 93% (HepG2, 10 µM).
For “AGCTTCACCAGGGCCTCCAT (sugars e5 d10 e5, PS)”, for the setting “HepG2, 0.12 µM”, the target mRNA inhibition is 42%.
On the same count and under the same terms, in the case of “CAGATACCTCCAGACATCAG (sugars e5 d10 e5, PS)” it was 38%.
For “GAGCAGATCTCAAAATCTCG (sugars e5 d10 e5, PS)”, the target mRNA inhibition came out at 72% (HepG2, 2.5 µM) and 87% (HepG2, 10 µM).
The sequence “TCCCCTTGGCAGAGAAACTG (sugars e5 d10 e5, PS)” displayed a target mRNA inhibition (HepG2, 0.12 µM) of 47%.
